According to publication PMC4660506 (Pharmacognosy Research, 2015):

How the values were obtained:
xanthine oxidase (XO) = xanthine oxidase (XO) (Bos taurus, UniProt P80457); experiment: Xanthine oxidase inhibitory activity; assay type: biochemical
alpha-amylase = target: T1, alpha-amylase (Sus scrofa, UniProt P00690); experiment: Alpha-amylase inhibitory activity; assay type: biochemical; details: qualitative statement
T1 sequence (P00690 16-511): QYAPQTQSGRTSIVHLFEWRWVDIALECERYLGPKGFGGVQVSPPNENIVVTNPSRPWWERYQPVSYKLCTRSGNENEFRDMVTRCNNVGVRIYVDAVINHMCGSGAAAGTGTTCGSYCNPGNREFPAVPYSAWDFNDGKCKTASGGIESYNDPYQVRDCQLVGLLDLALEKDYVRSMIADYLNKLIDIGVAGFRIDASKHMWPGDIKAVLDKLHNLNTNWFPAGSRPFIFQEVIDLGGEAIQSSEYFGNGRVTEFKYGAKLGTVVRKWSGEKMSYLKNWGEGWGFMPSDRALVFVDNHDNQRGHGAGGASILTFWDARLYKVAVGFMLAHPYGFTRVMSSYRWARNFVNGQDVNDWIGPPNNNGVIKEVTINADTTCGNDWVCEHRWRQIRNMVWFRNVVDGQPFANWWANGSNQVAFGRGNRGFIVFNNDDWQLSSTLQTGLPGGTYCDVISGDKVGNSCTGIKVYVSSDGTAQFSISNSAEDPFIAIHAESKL

xanthine oxidase (XO), sequence (P80457 2-1332 limits assumed): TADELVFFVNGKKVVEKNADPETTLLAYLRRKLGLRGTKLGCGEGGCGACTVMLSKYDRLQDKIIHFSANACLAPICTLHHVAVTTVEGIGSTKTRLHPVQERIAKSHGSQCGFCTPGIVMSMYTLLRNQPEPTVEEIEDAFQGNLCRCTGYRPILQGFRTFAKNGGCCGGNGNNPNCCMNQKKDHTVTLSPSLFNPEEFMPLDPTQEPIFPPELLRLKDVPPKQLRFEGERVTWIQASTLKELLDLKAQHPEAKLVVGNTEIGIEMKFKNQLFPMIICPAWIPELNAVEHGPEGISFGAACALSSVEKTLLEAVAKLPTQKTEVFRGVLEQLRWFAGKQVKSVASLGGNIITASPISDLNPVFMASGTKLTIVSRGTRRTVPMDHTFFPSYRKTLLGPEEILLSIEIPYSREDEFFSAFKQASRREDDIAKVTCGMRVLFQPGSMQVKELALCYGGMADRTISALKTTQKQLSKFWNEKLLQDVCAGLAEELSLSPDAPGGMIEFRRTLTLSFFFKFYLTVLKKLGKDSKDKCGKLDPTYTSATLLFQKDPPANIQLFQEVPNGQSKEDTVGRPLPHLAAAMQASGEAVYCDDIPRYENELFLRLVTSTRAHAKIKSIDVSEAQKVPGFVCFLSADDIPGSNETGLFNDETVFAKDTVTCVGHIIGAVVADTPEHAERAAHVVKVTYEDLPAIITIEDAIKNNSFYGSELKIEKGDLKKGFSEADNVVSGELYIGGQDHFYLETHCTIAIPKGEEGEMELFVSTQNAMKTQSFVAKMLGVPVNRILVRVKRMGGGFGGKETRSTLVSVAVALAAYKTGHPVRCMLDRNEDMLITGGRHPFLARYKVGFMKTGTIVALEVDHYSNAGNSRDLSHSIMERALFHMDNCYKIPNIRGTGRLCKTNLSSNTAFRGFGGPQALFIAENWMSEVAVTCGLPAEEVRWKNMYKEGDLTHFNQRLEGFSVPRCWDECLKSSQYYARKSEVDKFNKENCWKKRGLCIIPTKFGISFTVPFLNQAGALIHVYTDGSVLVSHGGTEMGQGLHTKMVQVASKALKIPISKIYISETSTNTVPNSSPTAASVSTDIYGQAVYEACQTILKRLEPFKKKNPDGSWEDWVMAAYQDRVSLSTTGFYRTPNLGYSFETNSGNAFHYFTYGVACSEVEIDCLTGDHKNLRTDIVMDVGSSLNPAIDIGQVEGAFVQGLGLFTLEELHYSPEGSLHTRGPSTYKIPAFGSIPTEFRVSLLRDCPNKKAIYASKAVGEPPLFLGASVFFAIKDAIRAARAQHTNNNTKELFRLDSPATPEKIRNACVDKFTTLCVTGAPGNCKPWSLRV

XO inhibitory activity (in words) (xanthine oxidase (XO); qualitative statement) | Compound | Alpha-amylase inhibitory activity (in words) (alpha-amylase) | also measured
active | 2-hydroxyacetophenone [F2] | – | –
active | C[C@@H]1O[C@@H](OC[C@H]2O[C@@H](Oc3c(-c4ccc(O)c(O)c4)oc4cc(O)cc(O)c4c3=O)[C@H](O)[C@@H](O)[C@@H]2O)[C@H](O)[C@H](O)[C@H]1O [F9, rutin] | – | EC50 (xanthine oxidase (XO)): 17.5 µM

Continued, compound first:

Compound | XO inhibitory activity (in words) (xanthine oxidase (XO); qualitative statement) | Alpha-amylase inhibitory activity (in words) (alpha-amylase) | also measured
O=c1c(O)c(-c2ccc(O)c(O)c2)oc2cc(O)cc(O)c12 [F10, quercetin] | – | – | XO inhibitory activity (in words) (xanthine oxidase (XO); qualitative statement in text, listed as Quercetin): highest inhibitory activity; XO inhibitory activity (in words) (xanthine oxidase (XO); qualitative statement in text, listed as quercetin): active
C=C(C)[C@@H]1CC[C@]2(C)CC[C@]3(C)[C@H](CC[C@@H]4[C@@]5(C)CC[C@H](O)C(C)(C)[C@@H]5CC[C@]43C)[C@@H]12 [F11, lupeol] | – | more active against alpha-amylase as compared to the parent fraction | –
CC[C@H](CC[C@@H](C)[C@H]1CC[C@H]2[C@@H]3CC=C4C[C@@H](O)CC[C@]4(C)[C@H]3CC[C@]12C)C(C)C [F7, β-sitosterol] | – | more active against alpha-amylase as compared to the parent fraction | –
